The text below walks through data of EP0324574B1, “Immunomodulating bryostatins” (priority 1988, dated 1989).

Series [1] deals with murine P388 lymphocyte leukemia (PS) system. To be noted: 10-70 µg/kg injection dose levels; cited from earlier work.
The next series relates to CTL OE4 cells. Briefly: Ag-specific cytotoxicity of CTL OE4 against P815 cells (51Cr-release). The settings on record: 10 ng/ml, P815 cells with CTL OE4 at various E/T ratios. Format: cell-based, murine. As for the experimental part: Effector cells and ⁵¹Cr-labeled target cells were mixed and incubated in triplicate in a 96-well plate at different E/T ratios as described in Grabstein, K. 1980. Cell-mediated cytolytic responses. In Selected Methods in Cellular Immunology, B. B. Mishel and S. M. Shiigi, eds. (San Francisco, Freeman), pp. 124. The target cell number was 10⁴ cells per well when ⁵¹Cr-release assay was performed with the cytolytic T-cell clones. 5x10³ target cells per well were used when spleen cells and lymph node T-cells were studied as effectors. PMA, bryostatin 1 and bryostatin 2 were added at a final concentration ranging from 0.5 ng/ml to 100 ng/ml. Lectin- dependent cytotoxicity assay was performed by adding 10 µg/ml Con A to the mixture of CTL and ⁵¹Cr-labeled target cells. After incubation, the 96-well plate was centrifuged (1 min, 800 rpm, 4|C), all supernatants were harvested, radioactivity in the samples was counted and the mean values for each triplicate were determined. Percent of specific ⁵¹Cr release was calculated as 100X (a-b)/(t-b), where a is ⁵¹Cr release in the presence of CTL, b is spontaneous release from labeled target cells in the absence of CTL and t is the total number of cpm in the target cells. […]
OE4 CXTL cells were incubated with 10⁴ Cr labeled P815-cells at different E/T ratios and a ⁵¹Cr-release was measured after 4 hours incubation. […]

The next series relates to P388 in vitro cell line. To be noted: against the P388 in vitro cell line; cited from earlier work.
The subject of series [2] is small resting T-cells. Briefly: BLT-E content of small resting T-cells after 3-day culture. Format: cell-based, BALB/c mice. The settings on record: for expression of BLT-E activity in resting T-cells: added alone; for amount of BLT-E on a per cell basis: in combination with IL-4. As for the experimental part:
(§1) This assay was performed as described in Takayama, H., et al. 1987. Antigen receptor triggered secretion of a trypsin-type esterase from cytotoxic T-lymphocytes. J. Immunol. 138:566. Briefly, effector cells were resuspended in the incubation media and incubated in triplicate in a 96-well plate (Immulon) at a concentration of 10⁵ cells per 100 µl. Phorbol myristate acetate ("PMA"), bryostatin 1 and bryostatin 2 were added at a final concentration of 10 ng/ml, the Ca⁺⁺ ionophore A23187 (free acid, Sigma C7522) was added at a final concentration of 0.5 µ g/ml. Total volume per well was adjusted to 200 µl. After 4 hours of incubation (37°C, 5% CO₂) the plates were spun (1 min., 200 xG) and 50 µl of the supernatant was harvested. Total BLT-E content was determined by solubilizing 10⁵ effector cells with 0.1% Triton X-100 in PBS.
(§2) Mesenteric lymph nodes were harvested from virus-free BALB/c mice 8-12 weeks of age. After two nylon wool column passages, Ia positive cells were subsequently lysed with the anti-Ia monoclonal antibody M5/114 plus Low-Tox-M rabbit complement as described above. Small dense resting T-cells were then separated by a modified discontinuous Percoll gradient procedure (See: Defranco, et al. 1982. Frequency of B-lymphocytes responsive to antiimmunoglobulin. J. Exp. Med. 155:1523.). Purified T-cells which were harvested in the 66-70% density band were considered to be small resting T-cells.
(§3) Small resting T-cells were purified from Balb/c mesenteric lymph nodes as described above. Purified cells were cultured for 3 days at a cell concentration of 10⁶ cells/ml either in media alone or in media plus different additions (rIL-2,100 U/ml; BSF-1, 2000 U/ml; bryostatin 1 or 2, 0.5 ng/ml). Cytotoxicity was measured in a 6 hour lectin mediated (Con A, 10 µg/ml) ⁵¹Cr-release assay. Results are shown for an E/T ratio of 100/l. For the determination of BLT-E content, 10⁶ cells of each of tested culture conditions were resuspended in 100 µl of media and solubilized with 1% Triton® X-100. Fifty l of cell suspension was used for measurement of BLT-esterase content as described above. Tested reagents when added alone to the cell cultures neither increased cellular BLT-esterase content nor induced cytotoxicity as shown in FIG. 7.

Another series has as its system tumor promoters. Briefly: antagonism of tumor promoters.
Series [3] concerns small resting T-cells. Briefly: development of cytotoxicity in small resting T-cells (lectin mediated 51Cr-release assay). Format: cell-based, BALB/c mice. As for the experimental part: (§4) Effector cells and ⁵¹Cr-labeled target cells were mixed and incubated in triplicate in a 96-well plate at different E/T ratios as described in Grabstein, K. 1980. Cell-mediated cytolytic responses. In Selected Methods in Cellular Immunology, B. B. Mishel and S. M. Shiigi, eds. (San Francisco, Freeman), pp. 124. The target cell number was 10⁴ cells per well when ⁵¹Cr-release assay was performed with the cytolytic T-cell clones. 5x10³ target cells per well were used when spleen cells and lymph node T-cells were studied as effectors. PMA, bryostatin 1 and bryostatin 2 were added at a final concentration ranging from 0.5 ng/ml to 100 ng/ml. Lectin- dependent cytotoxicity assay was performed by adding 10 µg/ml Con A to the mixture of CTL and ⁵¹Cr-labeled target cells. After incubation, the 96-well plate was centrifuged (1 min, 800 rpm, 4|C), all supernatants were harvested, radioactivity in the samples was counted and the mean values for each triplicate were determined. Percent of specific ⁵¹Cr release was calculated as 100X (a-b)/(t-b), where a is ⁵¹Cr release in the presence of CTL, b is spontaneous release from labeled target cells in the absence of CTL and t is the total number of cpm in the target cells.
as §2, §3

Series [4] deals with cytotoxic T-cell clone 2C. Briefly: Ag-nonspecific cytotoxicity of CTL clone 2C against EL-4 target cells (51Cr-release). It is filed as cell-based, murine. The settings on record: for lysis of EL-4 cells by CTL clone 2C: added to cell mixture, different E/T ratios. As for the experimental part: as §4
No ⁵¹Cr-release was observed when ⁵¹Cr-labeled EL-4 cells ([…]) were mixed with the cytotoxic T-cell clone 2C (anti-H-2L^d) at different E/T ratios.
CTL 2C clone were incubated 4 hours with ⁵¹Cr-labeled syngeneic EL4 target cells at different E/T ratios in the presence of different concentrations of PMA or bryostatin 2.

Series [5] concerns in vivo primed spleen cells. Briefly: generation of cytotoxicity in in vivo primed spleen cells (3-day culture, 51Cr-release assay). Format: cell-based, B10 mice. To be noted: for Index of Cell Recovery after incubation / Lytic Units Per 10⁷ cells: Media + rIL-2 (2U/ml) + 0.5 ng/ml PK-C activator, 3 days of incubation; for Lytic Units Per 10⁷ cells: P815 target cells; for development of CTL: 0.78nM present during incubation with 2 U/ml of rIL-2. Here is the method: as §4
B10 mice were immunized in vivo with 5-7.5x10⁶ irradiated P815 (H-2^d) cells. After 2-3 weeks animals were sacrificed and spleen cells were harvested. Red blood cells were lysed with hypotonic salt solution. Cells were incubated with 100 µl of 1/10 diluted M5/114.15.2 mAb containing ascites per 50x10⁶ cells. Following 30 min at room temperature, cells were washed and 100 µl of MAR 18.5 containing cell supernatant and 100 µl of rabbit complement per 50x10⁶ cells were added. Incubation at 37°C was allowed to proceed for 45 min., dead cells were removed by Hypaque-Ficoll centrifugation, washed and then incubated for three days in RPMI media/10% FCS with or without addition of IL-2, PMA or bryostatin as specified in legends of the drawing. Cytotoxicity against Ag-bearing target cells was measured in a ⁵¹Cr-release assay using P815 mastocytoma cells as targets.
In vivo primed B10 spleen cells were prepared as described above. After a 3-day culture either in the presence of either rIL-2 or rIL-2 plus protein kinase C activator, cytotoxicity was measured in a ⁵¹Cr release assay at the E/T ratios shown in FIG. 2 using 10⁴ P815 target cells/well. Results of cytotoxicity assay are shown for (A) cells cultured with rIL-2 alone (0 U/ml, 2 U/ml, 10 U/ml, 20 U/ml); (B) cells cultured with rIL-2 plus 0.5 ng/ml bryostatin 1; (C) cells cultured with rIL-2 plus 0.5 ng/ml bryostatin 2; and (D) cells cultured with rIL-2 plus 0.5 ng/ml PMA. […]

For the next series, the system named is CTL (clone BM10-37). Briefly: BLT-Esterase secretion assay in CTL clone. Format: cell-based, murine. Here is the method:
as §1
Using a newly developed BLT-esterase secretion assay (See: Takayama, H., et al, supra). the ability of bryostatins 1 and 2 to activate cytolytic T-cells and to trigger the exocytosis of granules from CTL was tested. […] The combination of bryostatin and Ca⁺⁺-ionophore, however, greatly enhances the activation of CTL and induces significant secretion of granule located enzyme. […] However, when equimolar concentrations of PMA and bryostatin are used, the amount of secreted BLT-Esterase was similar in both combinations.
10⁵ CTL (clone BM10-37) was incubated in a 96-well plate and stimulated by the addition of a PMA (10ng/ml) and A23187 (0.5 µg/ml). Specific BLT-E secretion was measured as described above.

Series [6] deals with M531 murine ovary sarcoma system. Also on record: dose or concentration left out as unconfirmed. The settings on record: cited from earlier work.
The subject of another series is HL-60 cell line. The settings on record: cited from earlier work.
The mark [7] stands for this setting: bryostatin and BSF-1 added together.
[8] abbreviates: 10 ng/ml in combination with Ca⁺⁺ ionophore A23187 0.5 µg/ml.

Take `CCC/C=C/C=C/C(=O)O[C@H]1/C(=C/C(=O)OC)C[C@H]2C[C@H]([C@@H](C)O)OC(=O)C[C@H](O)C[C@@H]3C[C@H](OC(C)=O)C(C)(C)[C@](O)(C[C@@H]4C/C(=C/C(=O)OC)C[C@H](/C=C/C(C)(C)[C@]1(O)O2)O4)O3` [bryostatin 1]: the life extension is recorded as 52-96% in [1] and 31-68% in series [6]. Besides, the “Ag-specific ⁵¹Cr-release” value with CTL OE4 cells is “slightly but consistently higher inhibition”. Further, in the series with P388 in vitro cell line, the ED₅₀ is 0.89 µg/mL. Also, the “expression of BLT-E activity in resting T-cells” value in the series on small resting T-cells [2] was “Neither growth factors (IL-2, IL-4) nor bryostatin 1 and 2 alone induced expression”. Further, in the series on small resting T-cells [2], the “amount of BLT-E on a per cell basis” value is listed as “dramatically increased”. Also, in the series with tumor promoters, the “antagonism of tumor promoters” value was “antagonists of tumor promoters”. For the same molecule, the “induction of cytotoxicity in small resting T-cells compared to PMA” value in the series with small resting T-cells [3] is given as “less effective than PMA”. The “CTL development in resting T-cells” value is listed as “failed to induce CTL development” in the series on small resting T-cells [3] (added alone) and “synergized” in the series on small resting T-cells [3] (setting [7]). Also, the “lysis of EL-4 cells by CTL clone 2C” value in [4] is given as “caused the lysis of EL-4 cells in a dose dependent manner”. Further, the “Index of Cell Recovery after incubation” value in [5] was 0.9. Besides, in series [5], the “Lytic Units Per 10⁷ cells” value came to 40 Lytic Units Per 10⁷ cells. Besides, the “degree of cytotoxicity obtained with high concentrations of rIL-2” value (from here on “degree of cytotoxicity obtained”) in series [5] is “enhanced”. In addition, the BLT-E secretion result is on record as “slightly lower than that of PMA/Ca²⁺-ionophore” in the series on CTL (clone BM10-37) (setting [8]) and “only a slight increase” in the series with CTL (clone BM10-37) (added alone, 10 ng/ml).
Regarding `CCCCCCCCCCCCCC(=O)O[C@@H]1[C@@H](C)[C@@]2(O)[C@@H](C=C(CO)C[C@]3(O)C(=O)C(C)=C[C@@H]23)[C@@H]2C(C)(C)[C@]12OC(C)=O` [PMA, 4 β-phorbol-12-myristate 13-acetate, reference compound], in the series with HL-60 cell line, the “induction of differentiation of the HL-60 cell line” value is “can be induced”. Besides, in series [5], the “development of CTL” value was “equal in magnitude to that induced by 20 U/ml of IL-2”, the “Index of Cell Recovery after incubation” value came out at 1.3, the “Lytic Units Per 10⁷ cells” value amounted to 71 Lytic Units Per 10⁷ cells and the “degree of cytotoxicity obtained” value is listed as “enhanced”. Also, in the series with CTL (clone BM10-37) (setting [8]), the BLT-E secretion result is given as “greatly enhanced”. Further, the BLT-E secretion result with CTL (clone BM10-37) (added alone, 10 ng/ml) is recorded as “slight BLT-Esterase secretion”.
In the case of bryostatin 2, the “Ag-specific ⁵¹Cr-release” value with CTL OE4 cells is “decreased”. Also, in the series on small resting T-cells [2], the “expression of BLT-E activity in resting T-cells” value was “Neither growth factors (IL-2, IL-4) nor bryostatin 1 and 2 alone induced expression”; the “amount of BLT-E on a per cell basis” value is “dramatically increased”. Besides, the “antagonism of tumor promoters” value in the series with tumor promoters is “antagonists of tumor promoters”. Besides, the “induction of cytotoxicity in small resting T-cells compared to PMA” value in the series on small resting T-cells [3] is listed as “consistently induced similar amounts of cytotoxicity”. Moreover, the “CTL development in resting T-cells” value with small resting T-cells [3] (added alone) was “failed to induce CTL development”. Moreover, the “CTL development in resting T-cells” value in the series on small resting T-cells [3] (setting [7]) is recorded as “synergized”. Moreover, the “level of ⁵¹Cr-release” value in series [4] (10 ng/ml, compared to same concentration of PMA or bryostatin 1, all E/T ratios (data not shown)) was “consistently lower”. In addition, in series [4], the “lysis of EL-4 cells by CTL clone 2C” value was “caused the lysis of EL-4 cells in a dose dependent manner”. Also, in [4] (plateau, 10-fold higher concentration gave no higher cytotoxicity), the “concentration causing maximal activity (lysis of EL-4 cells)” value came to 10 ng/mL. For the same molecule, in series [5], the “development of CTL” value was “equal in magnitude to that induced by 20 U/ml of IL-2”, the “Index of Cell Recovery after incubation” value is 1.0, the “Lytic Units Per 10⁷ cells” value is given as 70 Lytic Units Per 10⁷ cells and the “degree of cytotoxicity obtained” value was “enhanced”. For the same molecule, the BLT-E secretion result in the series on CTL (clone BM10-37) (setting [8]) is on record as “always less effective”. The BLT-E secretion result with CTL (clone BM10-37) (added alone, 10 ng/ml) was “only a slight increase”.
